Test system: CBF response evoked by electrical stimulation of the left ophthalmic branch of the trigeminal ganglion
Assay: Inhibition of cerebral blood flow (CBF) increase evoked by electrical stimulation of the trigeminal ganglion in anesthetized rats
Format: in vivo, Male Wistar rats
Conditions: rat, i.v.; for % Inhibition of the CBF response: mean±S.E. of 4/6 rats, versus vehicle
Description: Male Wistar rats (250-350 g) were anesthetized with sodium pentobarbital (50 mg/kg i.p.) dissolved in saline. The trachea and left femoral artery were cannulated for artificial ventilation (55 strokes/min) and for measurement of mean blood pressure (MBP) respectively. The femoral vein was cannulated for the intravenous administration of test agents. Body temperature was maintained at 37-38° C. by automatic control of a heating pad. Animals were placed in a stereotaxic frame and a longitudinal incision was made in the scalp. A burr hole was drilled in the skull and a stainless steel bipolar electrode (Plastic One MS 306) was lowered into left ophthalmic branch of the trigeminal ganglion (3.8 mm […] to bregma, 2.5 mm lateral from the midline and 9.5 mm below the dural surface) and secured with dental cement. Correct placement of the electrode was confirmed by a brief electrical stimulation, which cause movement of the jaw due to activation of the trigeminal fiber. Following removal of the brain, the correct position of the electrode into the fiber, was visually checked at the end of each experiment. A second hole was drilled ipsilateral of the electrode (1.5 mm rostral to bregma, and 1.5 mm lateral from the sagittal suture) and a needle probe (tip diameter 0.8 mm) of a laser doppler flowmeter was fixed pointing with its tip onto a branch of the middle cerebral artery (MCA) and Cerebral Blood Flow (CBF) change recorded on-line by the PeriFlux 4001 Laser Doppler system. Artefacts of the laser Doppler reading during electrical stimulation of the trigeminal ganglion due to muscular movements were prevented by a bolus of i.v. injection of the neuromuscular blocker pancuronium bromide (0.6 mg/kg i.v.). Anesthesia and neuromuscular blockade were maintained all over the experiment with an infusion of sodium pentobarbital and pancuronium (12.5 mg/kg/h+2.4 mg/kg/h, respectively). At the end of the surgery, a pause of thirty minutes was taken in order to stabilize the measured parameters. Rest CBF was increased by electrical stimulation with rectangular pulse of 0.5 msec length, 1-10 Hz, 0.5-1 mA for periods of 30 seconds. After two averaged pre-drug stimulations, vehicle or drugs were administered. The α-aminoamide compounds NW-1015, NW-1029, NW-1039, representative of the invention, and the comparative 2-(4-(2-fluorobenzyloxy)benzylamino)-2-methyl-propanamide (internal code and hereinafter NW1050), 2-(4-(4-fluorobenzyloxy)benzylamino)-2-methyl-propanamide (internal code and hereinafter NW1055, also one of the compounds tested in WO99/26614), 4-(4′-fluorophenoxy)benzaldheyde semicarbazone (hereinafter Co102862, tested in WO00/61188) and vehicle, were administered intravenously after second basal stimulation registering the responses to evoked flow by electrical stimulation at 5, 15, 30 and 60 min after treatment. NW-1015, was administered at the doses of 1, 2 and 5 mg/kg; NW-1029 was administered at the doses of 5 and 10 mg/kg and NW-1039 at the doses of 2 and 5 mg/kg whereas NW-1050, NW-1055 and Co102862 were all administered at the dose of 20 mg/kg. The responses obtained after drug administration were compared to the vehicle group, and were reported as a percentage of the inhibition of the evoked CBF. Data were compared by analysis of covariance (ANCOVA) followed by Dunnet's test. The antimigraine effect of the tested compounds was observed and measured as the percentage of the inhibition after i.v. administration of the above mentioned representative compounds of the CBF evoked in control condition. The data reported in table 1 below show the inhibitory activity of the tested compounds on the CBF response evoked by electrical stimulation of the left ophthalmic branch of the trigeminal ganglion. Results (mean±S.E. of 4/6 rats per group) are expressed as percent of the inhibition on evoked CBF response versus the vehicle.

[1] = dose 20 mg/kg, 5 min after administration
[2] = dose 20 mg/kg, 15 min after administration
[3] = dose 20 mg/kg, 30 min after administration
[4] = dose 20 mg/kg, 60 min after administration
[5] = at the doses tested (1-10 mg/kg), up to 60 min
[6] = dose 5 mg/kg, 5 min after administration
[7] = dose 5 mg/kg, 15 min after administration
[8] = dose 5 mg/kg, 30 min after administration
[9] = dose 5 mg/kg, 60 min after administration
[10] = dose 2 mg/kg, 5 min after administration
[11] = dose 2 mg/kg, 15 min after administration
[12] = dose 2 mg/kg, 30 min after administration
[13] = dose 2 mg/kg, 60 min after administration

Row | SMILES | Effect on the evoked CBF compared to the vehicle group (in words) (20 mg/kg) | % Inhibition of the CBF response [1] | % Inhibition of the CBF response [2] | % Inhibition of the CBF response [3] | % Inhibition of the CBF response [4] | Effect on the evoked CBF compared to the vehicle group (in words) [5] | % Inhibition of the CBF response [6] | % Inhibition of the CBF response [7] | % Inhibition of the CBF response [8] | % Inhibition of the CBF response [9] | % Inhibition of the CBF response [10] | % Inhibition of the CBF response [11] | % Inhibition of the CBF response [12] | % Inhibition of the CBF response [13] | other results
1 | NC(=O)NN=Cc1ccc(Oc2ccc(F)cc2)cc1 [Co102862, 4-(4′-fluorophenoxy)benzaldheyde semicarbazone, reference compound] | completely inactive | 0.9 ± 0.1% | 1.1 ± 0.3% | 1.2 ± 0.2% | 0.7 ± 0.1% | – | – | – | – | – | – | – | – | – | –
2 | C[C@H](NCc1ccc(OCc2ccccc2F)cc1)C(N)=O [NW-1029, (S)-(+)-2-[4-(2-fluorobenzyloxy)benzylamino]-propanamide] | – | – | – | – | – | reduced the evoked CBF compared to the vehicle up to 60 min post administration | 15.5 ± 3.7% | 20.8 ± 3.5% | 27.8 ± 3.9 % | 30.6 ± 2.8% | – | – | – | – | % Inhibition of the CBF response (dose 10 mg/kg, 5 min after administration): 23.9 ± 3.9%; % Inhibition of the CBF response (dose 10 mg/kg, 15 min after administration): 34.9 ± 8.2 %; % Inhibition of the CBF response (dose 10 mg/kg, 30 min after administration): 35.3 ± 2.6 %; % Inhibition of the CBF response (dose 10 mg/kg, 60 min after administration): 35.7 ± 3.9 %
3 | CC(C)(NCc1ccc(OCc2ccc(F)cc2)cc1)C(N)=O [NW-1055, 2-(4-(4-fluorobenzyloxy)benzylamino)-2-methyl-propanamide, reference compound] | light inhibition of the evoked CBF, which however did not reach a statistically significant difference | 6.9 ± 4.2% | 3.4 ± 3.2% | 11.3 ± 2.0% | 14.0 ± 4.0% | – | – | – | – | – | – | – | – | – | –
4 | CC(C)(NCc1ccc(OCc2ccccc2F)cc1)C(N)=O [NW-1050, 2-(4-(2-fluorobenzyloxy)benzylamino)-2-methyl-propanamide, reference compound] | completely inactive | 1.2 ± 0.3% | 1.8 ± 0.6% | 1.7 ± 0.8% | 0.9 ± 0.1% | – | – | – | – | – | – | – | – | – | –
5 | C[C@H](NCc1ccc(OCc2cccc(Cl)c2)cc1)C(N)=O [NW-1039, (S)-(+)-2-[4-(3-chlorobenzyloxy)benzylamino]-propanamide] | – | – | – | – | – | produced a decrease of the evoked CBF response compared to the vehicle group | 45.0 ± 6.3 % | 41.7 ± 1.8 % | 38.1 ± 2.6 % | 20.9 ± 9.4% | 24.2 ± 6.2% | 31.3 ± 6.2 % | 32.1 ± 8.1 % | 36.2 ± 9.1 % | –
6 | C[C@H](NCc1ccc(OCc2cccc(F)c2)cc1)C(N)=O [NW-1015, (S)-(+)-2-[4-(3-fluorobenzyloxy)benzylamino]-propanamide] | – | – | – | – | – | long lasting i.v. activity reducing the evoked CBF up to 60 min after administration | 25.2 ± 2.6% | 35.5 ± 6.5 % | 34.7 ± 1.9 % | 27.1 ± 3.6% | 15.0 ± 1.8 % | 22.0 ± 3.8 % | 20.6 ± 6.2 % | 4.0 ± 6.3% | % Inhibition of the CBF response (dose 1 mg/kg, 5 min after administration): 25.6 ± 2.9%; % Inhibition of the CBF response (dose 1 mg/kg, 15 min after administration): 25.8 ± 2.7%; % Inhibition of the CBF response (dose 1 mg/kg, 30 min after administration): 36.6 ± 4.7 %; % Inhibition of the CBF response (dose 1 mg/kg, 60 min after administration): 15.7 ± 9.8%
